Measurements reported in patent US11540999B2, “Deodorant compositions” (The Procter & Gamble Company, priority 2017, dated 2023).
Structures can show the parent of a compound that is named as a salt.

Tested on: two key underarm bacteria strains
Assay: Raw material microbial inhibition, verbal summary of Table 2
Format: cell-based
Conditions: both strains of Table 2, in words
Protocol: The data in Table 2 above was generated with the following test method.
3. Microbial Strains • Staphylococcus epidermidis (clinical isolate) • Corynebacterium mucofaciens (clinical isolate)
In row A of a 96 deep well plate pipette 180 ul of sterile BHI with 1% Tween 80 as a negative growth control. All other wells receive 180 ul of inoculum. From the master plate introduce 20 ul to the corresponding row in the test plate using an 8-channel pipette. Loaded plates are placed on a plate shaker in the 37° C. incubator and incubated overnight. The next day read the O.D. 600 on a plate reader. The MIC is the last well from the right that has no bacterial growth.

| Compound | performance against the bacteria as raw materials |
| --- | --- |
| C=CCCCCCCCCC(=O)N[C@@H](Cc1ccccc1)C(=O)O [Sepiwhite] | performing well |
| Cc1cc(CC(C)CC(C)(C)C)n(O)c(=O)c1.NCCO (stereo not shown) [piroctone olamine] | perform particularly well |
| COC(=O)CCC(=O)OC [Dimethyl Succinate] | performing well |
| C=CCc1ccc(O)c(OC)c1 [Eugenol] | performing well |
| O=C([O-])[O-].[Ca+2] [Ca Carbonate, calcium carbonate] | performing moderately well |
| CCOC(=O)CC(O)(CC(=O)OCC)C(=O)OCC [Triethyl citrate] | performing well |
| CC(C)=CCCC(C)=CC=O [Citral] | performing well |
